Type in all cases: biochemical
Experiment [1] has as its target T1, Human PI3K gamma (Homo sapiens, UniProt P48736).
T1 construct: His (N); host or cells: SF9 insect cells (baculovirus)
The experiment can be described thus: Human PI3K gamma enzyme assay (HTRF). The note with it: concentration not given, b1389 states 1.0 μM for PI3K δ and γ; for inhibition at 1 µM: read-out: p110 gamma Percent Inhibition. In a few lines: (§1)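 Compounds were mixed with 25 uM ATP, then with 3.5 uM di-C8 PI(4,5)P2 and His-tagged PI3K isoform (β 5.25 nM, δ 0.75 nM, γ 5 nM) at pH 7.00. After 30 min at room temperature, EDTA stopped the reaction and PIP3 was measured by HTRF over 1 h.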
(Time-resolved FRET reads energy transfer from a long-lived donor to a nearby acceptor.)

For experiment [2], the target named is T2, Human PI3K alpha (Homo sapiens, UniProt P42336).
T2 construct: His (N); host or cells: SF9 insect cells (baculovirus)
T2 sequence (P42336 whole entry): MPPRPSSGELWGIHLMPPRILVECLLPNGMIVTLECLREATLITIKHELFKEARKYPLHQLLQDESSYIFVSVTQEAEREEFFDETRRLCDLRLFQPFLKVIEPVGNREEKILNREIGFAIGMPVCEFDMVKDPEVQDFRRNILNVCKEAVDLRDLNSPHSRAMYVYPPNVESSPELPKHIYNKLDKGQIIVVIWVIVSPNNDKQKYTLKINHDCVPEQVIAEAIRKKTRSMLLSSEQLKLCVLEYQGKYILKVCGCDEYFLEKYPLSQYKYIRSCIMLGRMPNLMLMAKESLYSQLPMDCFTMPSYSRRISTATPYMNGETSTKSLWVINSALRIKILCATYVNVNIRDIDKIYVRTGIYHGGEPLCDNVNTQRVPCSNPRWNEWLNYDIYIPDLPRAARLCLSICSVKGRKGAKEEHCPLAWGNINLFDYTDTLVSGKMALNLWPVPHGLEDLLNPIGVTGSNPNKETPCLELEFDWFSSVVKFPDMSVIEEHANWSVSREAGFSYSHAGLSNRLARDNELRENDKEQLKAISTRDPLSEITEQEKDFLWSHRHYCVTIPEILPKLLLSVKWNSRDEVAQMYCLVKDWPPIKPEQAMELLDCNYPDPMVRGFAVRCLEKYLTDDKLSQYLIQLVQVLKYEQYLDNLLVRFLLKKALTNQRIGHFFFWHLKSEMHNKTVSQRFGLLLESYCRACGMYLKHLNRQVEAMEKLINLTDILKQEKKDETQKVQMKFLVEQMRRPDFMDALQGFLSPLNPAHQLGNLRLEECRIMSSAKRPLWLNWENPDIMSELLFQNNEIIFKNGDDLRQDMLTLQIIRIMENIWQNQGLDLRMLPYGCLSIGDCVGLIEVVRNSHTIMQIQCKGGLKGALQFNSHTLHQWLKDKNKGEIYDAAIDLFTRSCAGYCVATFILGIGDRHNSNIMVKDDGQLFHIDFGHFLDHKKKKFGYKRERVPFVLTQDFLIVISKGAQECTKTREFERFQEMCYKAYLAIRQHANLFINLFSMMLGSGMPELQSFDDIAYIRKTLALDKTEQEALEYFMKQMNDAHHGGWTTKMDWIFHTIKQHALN
T2 sequence (P27986 whole entry partner): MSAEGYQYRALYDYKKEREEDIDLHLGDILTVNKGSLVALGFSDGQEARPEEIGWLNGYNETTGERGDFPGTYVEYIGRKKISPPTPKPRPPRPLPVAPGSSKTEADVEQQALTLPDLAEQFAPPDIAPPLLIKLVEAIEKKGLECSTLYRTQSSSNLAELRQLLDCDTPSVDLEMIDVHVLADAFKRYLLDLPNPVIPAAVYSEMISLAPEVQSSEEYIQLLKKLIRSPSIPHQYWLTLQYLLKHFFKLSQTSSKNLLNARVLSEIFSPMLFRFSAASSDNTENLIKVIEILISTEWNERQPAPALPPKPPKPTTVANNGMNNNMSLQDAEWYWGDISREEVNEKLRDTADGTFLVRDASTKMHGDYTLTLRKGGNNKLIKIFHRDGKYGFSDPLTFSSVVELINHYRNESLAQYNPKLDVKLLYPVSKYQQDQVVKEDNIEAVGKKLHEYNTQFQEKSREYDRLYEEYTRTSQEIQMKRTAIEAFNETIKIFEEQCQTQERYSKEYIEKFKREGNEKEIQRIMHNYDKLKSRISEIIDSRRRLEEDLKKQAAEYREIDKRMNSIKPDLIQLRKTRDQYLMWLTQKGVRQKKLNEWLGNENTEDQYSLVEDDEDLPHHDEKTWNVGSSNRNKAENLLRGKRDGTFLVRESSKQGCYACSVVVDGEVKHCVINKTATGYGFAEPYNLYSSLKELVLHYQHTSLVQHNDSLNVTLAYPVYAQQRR
Put plainly: Human PI3K alpha enzyme assay (HTRF). The note with it: concentration not given, b1387 states 1.1 μM for PI3K α and β; for inhibition at 1.1 µM: read-out: p110 alpha Percent Inhibition.

Experiment [3] concerns the target T3, Human PI3K beta (Homo sapiens, UniProt P42338).
T3 construct: His (N); host or cells: SF9 insect cells (baculovirus)
The experiment can be described thus: Human PI3K beta enzyme assay (HTRF). The note with it: concentration not given, b1387 states 1.1 μM for PI3K α and β; for inhibition at 1.1 µM: read-out: p110 beta Percent Inhibition. The method, boiled down:
as §1

For experiment [4], the target named is T4, Human PI3K delta (Homo sapiens, UniProt O00329).
T4 construct: His (N); host or cells: SF9 insect cells (baculovirus)
T4 sequence (O00329 whole entry): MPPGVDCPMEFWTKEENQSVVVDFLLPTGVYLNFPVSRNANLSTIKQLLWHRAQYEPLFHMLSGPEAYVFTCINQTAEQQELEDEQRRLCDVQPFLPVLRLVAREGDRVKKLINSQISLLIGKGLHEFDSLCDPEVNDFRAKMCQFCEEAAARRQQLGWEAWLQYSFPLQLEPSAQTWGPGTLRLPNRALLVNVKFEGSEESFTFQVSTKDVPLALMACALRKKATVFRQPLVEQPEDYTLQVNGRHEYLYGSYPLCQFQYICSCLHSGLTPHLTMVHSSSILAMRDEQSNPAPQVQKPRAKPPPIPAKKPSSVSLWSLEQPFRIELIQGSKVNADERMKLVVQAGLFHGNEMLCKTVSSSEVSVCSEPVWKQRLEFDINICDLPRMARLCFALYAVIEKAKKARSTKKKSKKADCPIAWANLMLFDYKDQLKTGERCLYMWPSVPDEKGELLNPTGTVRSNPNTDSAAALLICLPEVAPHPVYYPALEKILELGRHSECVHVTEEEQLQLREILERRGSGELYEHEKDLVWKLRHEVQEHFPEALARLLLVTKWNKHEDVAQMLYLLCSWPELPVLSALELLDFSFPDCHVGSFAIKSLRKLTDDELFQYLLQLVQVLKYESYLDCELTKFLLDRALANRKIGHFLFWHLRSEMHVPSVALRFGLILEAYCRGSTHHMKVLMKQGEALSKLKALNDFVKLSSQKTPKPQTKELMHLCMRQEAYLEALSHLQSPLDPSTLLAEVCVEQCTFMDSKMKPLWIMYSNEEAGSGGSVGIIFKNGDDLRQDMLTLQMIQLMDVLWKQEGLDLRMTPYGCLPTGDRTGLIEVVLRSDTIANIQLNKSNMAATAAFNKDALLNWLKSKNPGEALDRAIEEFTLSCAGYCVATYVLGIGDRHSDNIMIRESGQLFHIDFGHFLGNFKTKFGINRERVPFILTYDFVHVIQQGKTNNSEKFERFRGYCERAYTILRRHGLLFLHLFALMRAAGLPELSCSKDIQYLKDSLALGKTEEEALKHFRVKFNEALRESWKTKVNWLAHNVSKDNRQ
T4 sequence (P27986 whole entry partner): as the sequence (P27986 whole entry partner) above
Put plainly: Human PI3K delta enzyme assay (HTRF). The note with it: concentration not given, b1389 states 1.0 μM for PI3K δ and γ; for inhibition at 1 µM: read-out: p110 delta Percent Inhibition. The method, boiled down:
as §1

Each structure is given as a SMILES string.

T1 sequence (P48736 whole entry): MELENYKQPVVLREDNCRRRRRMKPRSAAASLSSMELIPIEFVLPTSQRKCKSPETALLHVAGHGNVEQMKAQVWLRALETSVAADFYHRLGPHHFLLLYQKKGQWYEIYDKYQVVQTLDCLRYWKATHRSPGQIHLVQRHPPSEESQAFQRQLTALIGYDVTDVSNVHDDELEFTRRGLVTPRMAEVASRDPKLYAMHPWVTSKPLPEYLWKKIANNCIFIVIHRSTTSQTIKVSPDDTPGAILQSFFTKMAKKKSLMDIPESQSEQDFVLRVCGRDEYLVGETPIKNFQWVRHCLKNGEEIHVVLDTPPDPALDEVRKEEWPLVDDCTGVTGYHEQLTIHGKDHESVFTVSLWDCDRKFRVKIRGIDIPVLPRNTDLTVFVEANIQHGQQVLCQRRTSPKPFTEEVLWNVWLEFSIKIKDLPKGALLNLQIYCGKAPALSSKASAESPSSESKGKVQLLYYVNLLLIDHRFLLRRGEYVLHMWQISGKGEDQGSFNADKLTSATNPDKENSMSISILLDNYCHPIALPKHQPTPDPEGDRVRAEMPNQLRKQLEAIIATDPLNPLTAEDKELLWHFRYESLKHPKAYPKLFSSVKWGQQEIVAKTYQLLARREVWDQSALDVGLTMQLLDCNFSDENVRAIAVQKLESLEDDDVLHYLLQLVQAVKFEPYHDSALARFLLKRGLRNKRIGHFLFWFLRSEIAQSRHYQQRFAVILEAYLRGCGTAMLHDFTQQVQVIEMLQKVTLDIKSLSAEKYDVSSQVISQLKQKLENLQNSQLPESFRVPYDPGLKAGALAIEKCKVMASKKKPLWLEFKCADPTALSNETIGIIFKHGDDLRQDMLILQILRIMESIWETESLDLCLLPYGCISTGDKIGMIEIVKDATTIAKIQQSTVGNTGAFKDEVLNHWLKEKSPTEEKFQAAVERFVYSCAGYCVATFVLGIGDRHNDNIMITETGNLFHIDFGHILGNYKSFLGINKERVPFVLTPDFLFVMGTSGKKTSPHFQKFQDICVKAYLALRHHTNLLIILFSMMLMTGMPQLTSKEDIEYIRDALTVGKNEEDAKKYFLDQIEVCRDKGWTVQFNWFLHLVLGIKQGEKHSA
T3 sequence (P42338 whole entry): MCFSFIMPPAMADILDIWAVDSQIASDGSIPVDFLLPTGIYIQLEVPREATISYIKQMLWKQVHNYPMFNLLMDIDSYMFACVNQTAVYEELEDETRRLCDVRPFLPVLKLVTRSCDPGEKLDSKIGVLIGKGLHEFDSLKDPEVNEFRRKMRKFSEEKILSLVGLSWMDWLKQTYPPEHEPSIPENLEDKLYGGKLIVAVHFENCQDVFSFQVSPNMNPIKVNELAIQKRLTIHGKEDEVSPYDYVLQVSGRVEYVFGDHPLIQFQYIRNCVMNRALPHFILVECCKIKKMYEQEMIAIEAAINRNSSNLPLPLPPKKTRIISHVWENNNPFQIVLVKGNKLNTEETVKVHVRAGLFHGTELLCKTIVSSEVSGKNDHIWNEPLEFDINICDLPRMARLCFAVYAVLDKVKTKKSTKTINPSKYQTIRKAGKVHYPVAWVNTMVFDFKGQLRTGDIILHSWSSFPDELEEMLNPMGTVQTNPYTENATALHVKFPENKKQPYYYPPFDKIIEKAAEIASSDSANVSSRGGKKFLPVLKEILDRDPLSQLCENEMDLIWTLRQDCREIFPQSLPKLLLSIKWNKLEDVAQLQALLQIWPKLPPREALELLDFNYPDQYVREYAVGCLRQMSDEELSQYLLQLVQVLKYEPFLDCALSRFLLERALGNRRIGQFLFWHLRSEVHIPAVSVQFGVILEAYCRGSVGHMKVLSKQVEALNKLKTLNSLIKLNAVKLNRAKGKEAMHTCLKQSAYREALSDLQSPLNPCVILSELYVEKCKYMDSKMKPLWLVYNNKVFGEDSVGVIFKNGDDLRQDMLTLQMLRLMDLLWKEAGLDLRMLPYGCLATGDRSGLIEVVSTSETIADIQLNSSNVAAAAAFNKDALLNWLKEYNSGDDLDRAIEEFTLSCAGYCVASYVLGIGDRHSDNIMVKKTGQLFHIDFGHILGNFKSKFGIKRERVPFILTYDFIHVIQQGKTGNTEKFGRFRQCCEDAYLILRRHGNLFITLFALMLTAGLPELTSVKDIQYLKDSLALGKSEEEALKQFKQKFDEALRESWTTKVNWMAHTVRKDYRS
T3 sequence (P27986 whole entry partner): as the sequence (P27986 whole entry partner) above

Turning to `CC(C)(C)[S+]([O-])NC(c1ccc2ccccc2c1)c1c(C(=O)O)sc(N2CCOCC2)c1C#N` (stereo not drawn) [Compound 323], the inhibition at 1 µM in experiment [1] was found to be 46%; in experiment [4], 97%. The inhibition at 1.1 µM was found to be 66% in experiment [2] and 61% in experiment [3].
For `N#Cc1ccc2ccc(Cc3nc(N4CCOCC4)sc3C(=O)O)cc2c1` [Compound 325], the inhibition at 1 µM in experiment [1] was determined as 22%; in experiment [4] it was 89%. For the same molecule, the inhibition at 1.1 µM in experiment [2] turned out to be 17%; in experiment [3], 89%.
In the case of `CC(c1ccc2cc(F)ccc2c1)c1c(C(=O)O)sc(N2CCOCC2)c1C#N` (stereo not drawn) [Compound 326], the figures for the inhibition at 1 µM in experiment [1] and in experiment [4] were 56% and 96%, respectively. Further, in experiment [2], the “p110 alpha Percent Inhibition” value worked out at 79%. Further, in experiment [3], the inhibition at 1.1 µM came to 108%.
`N#Cc1c(N2CCOCC2)sc(C(N)=O)c1Cc1ccc2ccccc2c1` [Compound 327, 4-cyano-5-(morpholin-4-yl)-3-(2-naphthylmethyl)thiophene-2-carboxamide]: the results for the inhibition at 1 µM in experiment [1] and in experiment [4] were 22% and 109%, respectively. Besides, the inhibition at 1.1 µM in experiment [2] was 34%; in experiment [3], 109%.
On to `O=C(O)c1sc(N2CCOCC2)nc1Cc1ccc2cc[nH]c2c1` [Compound 328], for which the inhibition at 1 µM in experiment [1] is 48%; in experiment [4] it was 83%. The inhibition at 1.1 µM in experiment [2] was determined as 11%; in experiment [3] it was 98%.
The corresponding values for `NS(=O)(=O)c1sc(N2CCOCC2)nc1Cc1ccc2ccccc2c1` [Compound 329, 2-morpholino-4-(naphthalen-2-ylmethyl)thiazole-5-sulfonamide] are 29%, 80%, 39% and 112%.
The corresponding values for `Cn1c(Cc2c(C(=O)O)sc(N3CCOCC3)c2C#N)cc2ccccc21` [Compound 330] are 61%, 106%, 85% and 109%.
The like results for `CN(C)CCC(c1ccc(Cl)c(Cl)c1)c1c(C(=O)O)sc(N2CCOCC2)c1C#N` (stereo not drawn) [Compound 331, 4-cyano-3-[1-(3,4-dichlorophenyl)-3-(dimethylamino)propyl]-5-(morpholin-4-yl)thiophene-2-carboxylic acid] were, in that order, 51%, 107%, 37% and 105%.
Take `CC(c1ccc(Cl)c(Cl)c1)c1nc(N2CCOCC2)sc1C(=O)O` (stereo not drawn) [Compound 332]: the inhibition at 1 µM in experiment [1] came to 27%; in experiment [4], 91%. Further, the inhibition at 1.1 µM in experiment [2] came out at 11%; in experiment [3] it was 77%.
The corresponding values for `CC(c1ccc2ccccc2c1)c1c(C(=O)O)sc(N2CCOCC2)c1C#N` (stereo not drawn) [Compound 333] are 55%, 74%, 63% and 95%.
Regarding `NC(=O)c1sc(N2CCOCC2)nc1Cc1ccc2ccccc2c1` [Compound 334], the inhibition at 1 µM in experiment [1] is 12%; in experiment [4], 101%. Further, the values for the inhibition at 1.1 µM in experiment [2] and in experiment [3] were 21% and 103%, respectively.
The like results for `COc1ccc2ccc(Cc3nc(N4CCOCC4)sc3C(=O)O)cc2c1` [Compound 335] were, in that order, 31%, 107%, 54% and 111%.
Consider `CN(C)C(c1ccc(Cl)c(Cl)c1)c1c(C(=O)O)sc(N2CCOCC2)c1C#N` (stereo not drawn) [Compound 336], for which the “p110 gamma Percent Inhibition” value in experiment [1] is 10%. Besides, the “p110 alpha Percent Inhibition” value in experiment [2] was determined as 16%. In addition, the “p110 beta Percent Inhibition” value in experiment [3] is given as 90%. The “p110 delta Percent Inhibition” value in experiment [4] came to 49%.
In the case of `O=C(O)c1sc(N2CCOCC2)nc1Cc1cc(F)c2ccccc2c1` [Compound 338], the results for the inhibition at 1 µM in experiment [1] and in experiment [4] were 73% and 109%, respectively. The results for the inhibition at 1.1 µM in experiment [2] and in experiment [3] were 67% and 110%, respectively.
Turning to `O=C(O)c1sc(N2CCOCC2)nc1Cc1ccc2c(F)cccc2c1` [Compound 340], the inhibition at 1 µM came out at 59% in experiment [1] and 104% in experiment [4]. For the same molecule, the inhibition at 1.1 µM in experiment [2] worked out at 48%; in experiment [3], 113%.
Regarding `O=C(O)c1sc(N2CCOCC2)nc1Cc1cc2ccccc2o1` [Compound 341], the results for the inhibition at 1 µM in experiment [1] and in experiment [4] were 30% and 98%, respectively. For the same molecule, the values for the inhibition at 1.1 µM in experiment [2] and in experiment [3] were 30% and 110%, respectively.
In the case of `CC(C)(C)[S+]([O-])NC(c1ccc(Cl)c(Cl)c1)c1c(C(=O)O)sc(N2CCOCC2)c1C#N` (stereo not drawn) [Compound 342], the values for the inhibition at 1 µM in experiment [1] and in experiment [4] were 12% and 97%, respectively. Also, the inhibition at 1.1 µM is 34% in experiment [2] and 80% in experiment [3].
Consider `O=C(O)c1sc(N2CCOCC2)nc1Cc1ccc2ccncc2c1` [Compound 344], for which the inhibition at 1 µM in experiment [1] worked out at 59%; in experiment [4], 102%. The inhibition at 1.1 µM is 24% in experiment [2] and 103% in experiment [3].
The like results for `CC(c1ccc2ccccc2c1)c1nc(N2CCOCC2)sc1C(=O)O` (stereo not drawn) [Compound 346] were, in that order, 23%, 98%, 21% and 98%.
The like results for `N#Cc1c(N2CCOCC2)sc(C(=O)O)c1C(CCO)c1ccc(Cl)c(Cl)c1` (stereo not drawn) [Compound 347, 4-cyano-3-[1-(3,4-dichlorophenyl)-3-hydroxypropyl]-5-(morpholin-4-yl)thiophene-2-carboxylic acid] were, in that order, 60%, 111%, 71% and 102%.
The corresponding values for `O=C(O)Cc1sc(N2CCOCC2)nc1Cc1ccc(Cl)c(Cl)c1` [Compound 348, 2-(4-(3,4-dichlorobenzyl)-2-morpholinothiazol-5-yl)acetic acid] are 4%, 56%, 4% and 63%.
As for `Clc1ccc(Cc2nc(N3CCOCC3)sc2Cc2nnn[nH]2)cc1Cl` [Compound 350, 4-(5-((1H-tetrazol-5-yl)methyl)-4-(3,4-dichlorobenzyl)thiazol-2-yl)morpholine], the results for the inhibition at 1 µM in experiment [1] and in experiment [4] were 3% and 41%, respectively. In addition, the inhibition at 1.1 µM in experiment [2] stood at 6%; in experiment [3], 58%.
The corresponding values for `CN(C)C(c1ccc(Cl)cc1)c1c(C(=O)O)sc(N2CCOCC2)c1C#N` (stereo not drawn) [Compound 351] are 46%, 79%, 15% and 82%.
The like results for `CS(=O)(=O)NC(=O)c1sc(N2CCOCC2)c(C#N)c1Cc1ccc(Cl)c(Cl)c1` [Compound 352, 4-cyano-3-(3,4-dichlorobenzyl)-N-(methylsulfonyl)-5-morpholinothiophene-2-carboxamide] were, in that order, 14%, 84%, 18% and 85%.

Values taken from US8796268B2, “Heteroaryls and uses thereof” (Millennium Pharmaceuticals, Inc., priority 2010, dated 2014).
